Assays:
[1] = oral administration, fasted state; cited from earlier work
[2] = Stability of Ramipril on exposure to stomach juices / acid pH; assay type: physicochemical
[3] = cited from earlier work

Row | Compound | Time to peak plasma concentrations [1] | Stability on exposure to stomach juices (acid pH) [2] | Absorption in the presence of food [3]
1 | CCOC(=O)[C@H](CCc1ccccc1)N[C@@H](C)C(=O)N1[C@H](C(=O)O)C[C@@H]2CCC[C@@H]21 [Ramipril, (2S,3aS,6aS)-1[(S)-N-[(S)-1-carboxy-3-phenylpropyl]alanyl]octahydrocyclopenta[b]pyrrole-2-carboxylic acid, 1-ethyl ester] | one | breaks down | 
2 | CC(=O)Oc1ccccc1C(=O)O [aspirin] |  |  | delayed
